Laboratory results: US4599325A, “Substituted tyrosyl alanine dipeptide amides” (G. D. Searle & Co., priority 1985, dated 1986)
Counter-ions that a name gives are not always drawn.

Tests used:
mice [1] = test: Writhing assay (phenylbenzoquinone); format: in vivo, mouse; settings: for ED50: Mus musculus; for Writhing Mouse Oral (ED50) / Writhing Mouse Subc. (ED50): Table 1; for Writhing Mouse Subc. (ED50): subcutaneous
Procedure: Male Charles River albino mice (CD-1/HAM/1LR) weighing between 20 and 30 grams were used. Thirty minutes after subcutaneous or intragastric administration of the test compound (0.1 ml/10 gram body weight), 0.025% (w/v) phenylbenzoquinone was injected intraperitoneally (0.1 ml/10 gram body weight). Five minutes later, each mouse was placed in a large glass beaker and the number of writhes that occurred in the subsequent ten minutes is counted. A writhe consisted of dorsoflexion of the back, extension of the hindlimbs, and strong contraction of the abdominal musculature. The test compound was considered to have produced analgesia in a mouse if the number of writhes elicited by phenylbenzoquinone was equal to or less than one-half the median number of writhes recorded for the saline-treated group that day. The results were expressed as the number of mice (out of a possible ten) in which the test compound produced analgesia. The test compound was rated active if writhing was inhibited (as described) in 5 of 10 mice.
The receptor binding and biological properties of the following compounds of this invention are illustrated in Tables 1 and 2 utilizing the previously described opiate binding, hot plate, tail flick, writhing assay, cholera test or hypertensive test. The standard screening dose for the hot plate test of Table 1 was 10 mg/kg i.v. and for the writhing assay was 10 mg/kg s.c. and p.o.

mice [2] = test: Hot plate test (intravenous administration); format: in vivo, mouse; settings: 10 mg/kg i.v.
Procedure: Male albino inbred mice supplied by Charles River [CD-1 (ICR)BR] weighing between 20 and 30 grams were used. The mice were placed on a 55° C. hot plate 60, 40, and 20 minutes prior to drug administration and the latencies to the lick of a paw or to a jump were recorded. Mice not responding within 15 seconds were discarded from the study. The test compound or vehicle was then administered intravenously and the animals' response latencies on the hot plate were recorded again 10, 30 and 60 minutes later. The initial test dose was 10 mg/kg. Mice not responding within 30 seconds were removed from the hot plate to prevent tissue damage and assigned the cut-off value of 30 seconds. Elevation of the response latencies to greater than twice the median of the three pre-drug latency measurements was indicative of analgesia. For each time point, the data were expressed as the number of animals having analgesic response latencies out of the total number tested. The number of analgesic animals in the test compound-treated group was then compared with the number of analgesic animals in the vehicle-treated group at each time point using Fisher's Exact Probability Test. S. Siegel, Nonparametric Statistics for the Behavioral Sciences. McGraw-Hill, New York, pp. 96-104 (1956 ). […]

mice [3] = test: Combined tail flick and hot plate tests: tail flick; format: in vivo, mouse; settings: for ED50: Mus musculus, combined tail flick/hot plate; for activity in tail flick test: oral and subcutaneous, prior art at doses as great as 100 mg/kg p.o. and 50 mg/kg s.c.
Procedure: Male albino inbred mice supplied by Charles River (CD-1/HAM/1LR) weighing between 20 and 30 grams were used. Analgesia was first measured using the tail flick test in which a high intensity beam of light was focused on the blackened tail. The interval of time between onset of the light and reflex removal of the tail was defined as the tail flick latency. The average of two successive determinations was recorded. Following tail flick determination, the animals were immediately placed on a 55° C. copper hot plate to which they were restricted by an inverted 600 ml glass beaker. Hot plate latency was defined as the interval between placement on the hot plate and a behavioral response of either a jump or a hindpaw lick. One determination was recorded. Mice not responding within 4.0 seconds on the tail flick and 20.0 seconds on the hot plate were discarded from the study. The tail flick test and the hot plate test were stopped after 12.0 and 40 seconds, respectively, had elapsed to prevent tissue damage. After determination of pre-injection baseline latencies, the test compound was dissolved in distilled water and administered either orally or subcutaneously (0.1 ml/10 gram body weight). Tail flick and hot plate latencies were measured 10, 30, 60 and 90 minutes after injection. One-way analyses of variance were used to detect any significant increase in tail flick and hot plate latencies (indicative of analgesia) as compared to latencies prior to drug adminstration, as well as to establish the dose-dependence of any effect. A linear regression method (least squares) was used to determine the line of best fit. The ED50 dose was determined to be that dose of test compound that produced one-half the maximum measurable increase in latency. This corresponded to a post-drug tail flick latency of 7.5 seconds and hot plate latency of 25 seconds. G. Keppel: Design and analysis: a researcher's handbook, New Jersey, Prentice-Hall, 1973.

rat cholera model = test: Cholera-induced intestinal fluid secretion (rat cholera model); format: in vivo
Procedure: The rat cholera model was used to determine the effect of the test compounds on intestinal fluid movements. (H. I. Jacoby and C. H. Marshall, Antagonism of Cholera Enterotoxin by Anti-inflammatory Agents in the Rat. Nature, 235, 163-165, 1972). Female Charles River rats weighing 85-100 grams and having free access to water were fasted for 24 hours prior to each experiment. After a midline incision was made under ether anesthesia, a 20-cm ligated small intestinal segment was constructed starting 3 cm distal to the ligament of Treitz. Each segment was injected, using a 27 gauge 1/2-inch needle, with crude cholera toxin in a 0.9% saline solution. Thirty minutes before cholera toxin was injected, test compounds were administered subcutaneously to groups of four rats at doses of 10 and 20 mg/kg. Four hours after injection of toxin, the animals were sacrificed and the fluid content and exact length of the intestinal segments were measured. Fluid secretion was expressed in ml/cm of intestine.
The ID50 's of these compounds were estimated using data obtained from at least two doses and at least two experiments by the method of maximum likelihood. R. A. Fischer. "Principles of Statistical Estimation." in Statistical Methods for Research Workers, 14th ed. Hafner: New York; pp. 301-339. […]

[4] = test system: spontaneous hypertensive rats (SHR); test: Hypertensive test in spontaneous hypertensive rats (SHR); format: in vivo, rat; set-up: key to Antihypertensive Properties, Result: Active: Any compound that resulted in a decrease in arterial blood pressure of 20 mm Hg or greater was considered active; settings: for Antihypertensive Properties, Result: Table 3, 10 mg/kg intravenously, one unanesthetized male SHR
Procedure: A compound's ability to act as an antihypertensive agent was determined using spontaneous hypertensive rats (SHR). Male SHR were maintained in-house for 1 or more weeks before use and were between 11 and 16 weeks old. The test compound was administered intravenously and the initial mean arterial blood pressure was measured directly via an arterial catheter implanted immediately before administration of the compound. Blood pressure readings were made 5, 10 and 15 minutes after administration of the compound. […] Statistical comparisons were made using the unpaired student's test.
The following compounds of the invention were evaluated for their antihypertensive properties using the spontaneous hypertensive rat (SHR). […] The SHR test was essentially that described earlier. Each compound listed in Table 3, was administered intravenously to one unanesthetized, male, spontaneously hypertensive rat; the dosage was 10 mg/kg.

Compound: Cc1cc(O)cc(C)c1C[C@H](N)C(=O)N[C@H](C)C(=O)NCCCc1ccccc1 [Example 5, 2,6-dimethyltyrosyl-N-(3-phenylpropyl)-D-alaninamide, hydrochloride]
- ED50 (mice [1]; po, Table 2, p.o., read-out: Writhing (ED50) p.o.): 0.5 mg/kg
- ED50 (mice [1]; sc, Table 2, s.c., read-out: Writhing (ED50) s.c.): 0.5 mg/kg
- Writhing Mouse Oral (ED50) (mice [1]; hydrochloride): 0.53 mg/kg
- Writhing Mouse Subc. (ED50) (mice [1]; hydrochloride): 0.52 mg/kg
- activity in writhing test relative to the prior art, oral (mice [1]; administered orally, more active than prior art): 6 times
- potency in writhing test relative to the prior art, subcutaneous (mice [1]; subcutaneous administration): approximately equipotent
- Hot Plate (I.V.) 10 mg/kg: rating and animals with analgesic latencies / tested (mice [2]): Active 6/7
- ED50 (mice [3]; po, p.o., read-out: Tail Flick (ED50) p.o.): 115 mg/kg
- ED50 (mice [3]; sc, s.c., read-out: Tail Flick (ED50) s.c.): 35 mg/kg
- activity in tail flick test (mice [3]): active
- ED50 (rat cholera model; Rattus norvegicus, sc, read-out: Rat Cholera Test (ED50)): 6.1 mg/kg
- SHR Blood Pressure, dose printed (active at) ([4]; Table 2, i.v.): 1 mg/kg
- Antihypertensive Properties, Result [4]: Active

Compound: tyrosine-D-alanine-phenylpropylamide [Prior Art, reference compound]
- Writhing Mouse Oral (ED50) (mice [1]): 0.58 mg/kg
- Writhing Mouse Subc. (ED50) (mice [1]): 3.10 mg/kg
- Writhing (ED50) s.c. (mice [1]; Table 2, s.c.): 0.6 mg/kg
- Hot Plate (I.V.) 10 mg/kg: rating and animals with analgesic latencies / tested (mice [2]): Inactive 0/10
- Tail Flick, activity at stated dose s.c. (mice [3]; 50 mg/kg s.c.): Inactive
- Tail Flick, activity at stated dose p.o. (mice [3]; 100 mg/kg p.o.): Inactive
- activity in tail flick test (mice [3]): not active
- Rat Cholera Test, activity at stated dose (rat cholera model; 20 mg/kg s.c.): Inactive
- SHR Blood Pressure, activity at stated dose ([4]; Table 2, 10 mg/kg i.v.): Active
- Antihypertensive Properties, Result [4]: Active
